Results reported in ChEMBL document CHEMBL1909046, “DrugMatrix in vitro pharmacology data”.

Key:
Cytochrome P450 2D6 = Cytochrome P450 2D6 (Homo sapiens, UniProt P10635); settings: bti-tn-5b1-4; note: in other assays of this panel Not Active means under 50% inhibition at 10 µM
[1] = molecular target: 5-hydroxytryptamine receptor 4 (Cavia porcellus, UniProt O70528); type: cell membranes, Dunkin-Hartley, Striatum, Membrane; note: in other assays of this panel Not Active means under 50% inhibition at 10 µM
[2] = molecular target: T1, Muscarinic acetylcholine receptor M2 (Homo sapiens, UniProt P08172); type: cell membranes, CHO-K1, Membrane; note: in other assays of this panel Not Active means under 50% inhibition at 10 µM
T1 sequence (P08172 whole entry): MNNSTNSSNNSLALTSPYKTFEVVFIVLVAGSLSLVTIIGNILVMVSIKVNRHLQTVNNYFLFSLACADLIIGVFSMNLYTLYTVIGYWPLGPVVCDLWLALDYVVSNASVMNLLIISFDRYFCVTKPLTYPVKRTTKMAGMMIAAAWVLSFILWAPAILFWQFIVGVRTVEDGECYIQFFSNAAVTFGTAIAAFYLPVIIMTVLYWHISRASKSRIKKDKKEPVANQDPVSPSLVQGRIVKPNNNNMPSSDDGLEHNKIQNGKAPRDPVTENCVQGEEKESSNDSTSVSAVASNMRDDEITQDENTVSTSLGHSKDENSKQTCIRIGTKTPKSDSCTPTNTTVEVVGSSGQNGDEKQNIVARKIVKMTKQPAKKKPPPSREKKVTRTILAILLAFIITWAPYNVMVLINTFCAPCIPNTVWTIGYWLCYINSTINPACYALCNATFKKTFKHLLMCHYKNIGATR

[3] = molecular target: Mitogen-activated protein kinase 3 (Homo sapiens, UniProt P27361); test: DRUGMATRIX: Protein Serine/Threonine Kinase, ERK1 enzyme inhibition (substrate: Myelin Basic Protein); set-up: species or system Escherichia coli; settings: Not Active = under 50% inhibition at 10 µM
[4] = DRUGMATRIX: Atrial Natriuretic Factor (ANF) radioligand binding (ligand: [125I] ANF (rat)); type: cell membranes, Cavia porcellus, Dunkin-Hartley, Adrenal gland, Membrane; settings: Not Active = under 50% inhibition at 10 µM
[5] = molecular target: Beta-3 adrenergic receptor (Homo sapiens, UniProt P13945); test: DRUGMATRIX: Adrenergic beta3 radioligand binding (ligand: [125I] Cyanopindolol); type: cell membranes, HEK293, Membrane; settings: Not Active = under 50% inhibition at 10 µM
Beta-3 adrenergic receptor, sequence (P13945 whole entry): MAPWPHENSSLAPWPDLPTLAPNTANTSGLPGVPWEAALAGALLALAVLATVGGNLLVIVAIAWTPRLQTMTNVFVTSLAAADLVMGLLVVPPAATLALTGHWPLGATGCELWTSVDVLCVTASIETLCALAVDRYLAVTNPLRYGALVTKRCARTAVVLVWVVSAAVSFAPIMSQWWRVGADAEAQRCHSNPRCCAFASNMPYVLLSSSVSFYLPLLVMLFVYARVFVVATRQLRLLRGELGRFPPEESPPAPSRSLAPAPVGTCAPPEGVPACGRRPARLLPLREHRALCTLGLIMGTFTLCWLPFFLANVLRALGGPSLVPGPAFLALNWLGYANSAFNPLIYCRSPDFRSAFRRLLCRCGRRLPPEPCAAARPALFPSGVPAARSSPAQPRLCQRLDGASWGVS

5-hydroxytryptamine receptor 4, sequence (O70528 whole entry): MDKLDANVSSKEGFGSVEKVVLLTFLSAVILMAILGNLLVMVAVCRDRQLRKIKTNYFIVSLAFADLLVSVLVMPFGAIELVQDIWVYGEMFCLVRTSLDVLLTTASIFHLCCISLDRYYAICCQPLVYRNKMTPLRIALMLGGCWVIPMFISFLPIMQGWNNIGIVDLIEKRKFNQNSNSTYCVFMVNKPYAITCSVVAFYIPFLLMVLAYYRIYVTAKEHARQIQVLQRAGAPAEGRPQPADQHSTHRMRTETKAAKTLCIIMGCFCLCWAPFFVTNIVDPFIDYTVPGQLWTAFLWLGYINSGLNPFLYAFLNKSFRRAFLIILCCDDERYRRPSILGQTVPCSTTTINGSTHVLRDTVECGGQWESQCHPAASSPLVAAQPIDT
Mitogen-activated protein kinase 3, sequence (P27361 whole entry): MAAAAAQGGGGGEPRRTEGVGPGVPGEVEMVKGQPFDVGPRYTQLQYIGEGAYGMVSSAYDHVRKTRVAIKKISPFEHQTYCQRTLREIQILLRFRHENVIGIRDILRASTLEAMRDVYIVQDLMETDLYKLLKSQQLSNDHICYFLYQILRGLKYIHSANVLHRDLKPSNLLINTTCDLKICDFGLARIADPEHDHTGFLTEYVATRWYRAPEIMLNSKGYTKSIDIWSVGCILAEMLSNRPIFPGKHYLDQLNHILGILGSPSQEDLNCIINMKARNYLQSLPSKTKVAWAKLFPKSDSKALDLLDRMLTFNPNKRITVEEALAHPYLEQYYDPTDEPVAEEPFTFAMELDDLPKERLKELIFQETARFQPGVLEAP
Cytochrome P450 2D6, sequence (P10635 whole entry): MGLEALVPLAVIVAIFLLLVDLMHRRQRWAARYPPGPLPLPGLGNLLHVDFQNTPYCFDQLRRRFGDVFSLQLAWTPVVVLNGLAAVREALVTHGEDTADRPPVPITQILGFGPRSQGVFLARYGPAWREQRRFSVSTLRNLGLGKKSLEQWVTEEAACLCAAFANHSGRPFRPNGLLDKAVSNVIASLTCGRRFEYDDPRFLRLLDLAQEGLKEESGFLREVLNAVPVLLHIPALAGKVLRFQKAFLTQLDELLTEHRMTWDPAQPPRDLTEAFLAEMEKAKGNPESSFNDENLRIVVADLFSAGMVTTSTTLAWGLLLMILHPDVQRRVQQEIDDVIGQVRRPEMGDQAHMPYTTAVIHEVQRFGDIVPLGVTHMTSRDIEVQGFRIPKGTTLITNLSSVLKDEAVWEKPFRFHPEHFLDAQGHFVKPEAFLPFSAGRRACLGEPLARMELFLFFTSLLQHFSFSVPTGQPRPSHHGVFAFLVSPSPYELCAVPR

OC[C@H]1OC2C3[C@@H](CO)OC(O[C@H]4[C@H](O)[C@@H](O)[C@@H](O[C@H]5[C@H](O)[C@@H](O)[C@@H](O[C@H]6[C@H](O)[C@@H](O)[C@@H](O[C@H]7[C@H](O)[C@@H](O)[C@@H](O[C@H]8[C@H](O)[C@@H](O)[C@@H](O[C@H]9[C@H](O)[C@@H](O)C(OC1[C@H](O)[C@H]2O)O[C@@H]9CO)O[C@@H]8CO)O[C@@H]7CO)O[C@@H]6CO)O[C@@H]5CO)O[C@@H]4CO)[C@H](O)[C@H]3O
Not Active: IC50 (Cytochrome P450 2D6) | Ki (Cytochrome P450 2D6) | IC50 [1] | IC50 ([2]; cho-k1) | IC50 [3] | IC50 [4] | Ki [4] | IC50 ([5]; hek293)

C=CCO [ALLYL ALCOHOL]
Not Active: IC50 (Cytochrome P450 2D6) | Ki (Cytochrome P450 2D6) | IC50 [1] | IC50 ([2]; cho-k1) | IC50 [3] | IC50 [4] | Ki [4] | IC50 ([5]; hek293)

C[C@]12CC[C@@H](O)C[C@@H]1CC[C@@H]1[C@@H]2CC[C@]2(C)C(=O)CC[C@@H]12 [ANDROSTERONE]
Not Active: IC50 (Cytochrome P450 2D6) | Ki (Cytochrome P450 2D6) | IC50 [1] | IC50 ([2]; cho-k1) | IC50 [3] | IC50 [4] | Ki [4] | IC50 ([5]; hek293)

COC(=O)Nc1nc2ccc(Sc3ccccc3)cc2[nH]1 [FENBENDAZOLE]
Not Active: IC50 (Cytochrome P450 2D6) | Ki (Cytochrome P450 2D6) | IC50 [1] | IC50 ([2]; cho-k1) | IC50 [3] | IC50 [4] | Ki [4] | IC50 ([5]; hek293)

C#C[C@]1(O)CC[C@H]2[C@@H]3CCC4=CC(=O)CC[C@@H]4[C@H]3CC[C@@]21C [NORETHINDRONE]
Not Active: IC50 (Cytochrome P450 2D6) | Ki (Cytochrome P450 2D6) | IC50 [1] | IC50 ([2]; cho-k1) | IC50 [3] | IC50 [4] | Ki [4] | IC50 ([5]; hek293)

O=C(Nc1ccc(Cl)c(Cl)c1)c1cc(Cl)cc(Cl)c1O [3,3',4',5-TETRACHLOROSALICYLANILIDE]
Not Active: IC50 (Cytochrome P450 2D6) | Ki (Cytochrome P450 2D6) | IC50 [1] | IC50 ([2]; cho-k1) | IC50 [3] | IC50 [4] | Ki [4] | IC50 ([5]; hek293)

CC1(COc2ccc(CC3SC(=O)NC3=O)cc2)CCCCC1 (stereo not drawn) [CIGLITAZONE]
Not Active: IC50 (Cytochrome P450 2D6) | Ki (Cytochrome P450 2D6) | IC50 [1] | IC50 [3] | IC50 [4] | Ki [4]
13.4 µM: Ki ([5]; read-out: Ki)
17.9 µM: IC50 ([5]; read-out: IC50)
21.1 µM: IC50 ([2]; read-out: IC50)
7.5 µM: Ki ([2]; read-out: Ki)

COc1cc([C@@H]2c3cc4c(cc3[C@H](O)[C@H]3COC(=O)[C@H]23)OCO4)cc(OC)c1OC [PODOFILOX]
Not Active: IC50 (Cytochrome P450 2D6) | Ki (Cytochrome P450 2D6) | IC50 [1] | IC50 ([2]; cho-k1) | IC50 [3] | IC50 [4] | Ki [4] | IC50 ([5]; hek293)

COC(=O)C[C@](O)(CCC(C)(C)O)C(=O)O[C@@H]1C(OC)=C[C@]23CCCN2CCc2cc4c(cc2[C@H]13)OCO4 [HARRINGTONINE]
Not Active: IC50 (Cytochrome P450 2D6) | Ki (Cytochrome P450 2D6) | IC50 [1] | IC50 ([2]; cho-k1) | IC50 [3] | IC50 [4] | Ki [4] | IC50 ([5]; hek293)

O=c1[nH]cnc2c1ncn2[C@H]1CC[C@@H](CO)O1 [DIDANOSINE]
Not Active: IC50 (Cytochrome P450 2D6) | Ki (Cytochrome P450 2D6) | IC50 [1] | IC50 ([2]; cho-k1) | IC50 [3] | IC50 [4] | Ki [4] | IC50 ([5]; hek293)

O=C(O)CO [GLYCOLIC ACID]
Not Active: IC50 (Cytochrome P450 2D6) | Ki (Cytochrome P450 2D6) | IC50 [1] | IC50 ([2]; cho-k1) | IC50 [3] | IC50 [4] | Ki [4] | IC50 ([5]; hek293)

CC(C)Cc1ccc([C@H](C)C(=O)O)cc1 [DEXIBUPROFEN]
Not Active: IC50 (Cytochrome P450 2D6) | Ki (Cytochrome P450 2D6) | IC50 [1] | IC50 ([2]; cho-k1) | IC50 [3] | IC50 [4] | Ki [4] | IC50 ([5]; hek293)
